Measurements as given in patent US20090220469A1, “PEPTIDES AGAINST AUTOANTIBODIES ASSOCIATED WITH GLAUCOMA AND USE OF THESE PEPTIDES” (MAX-DELBRUECK-CENTRUM FUER MOLEKULARE MEDIZIN, priority 2006, published 2009).

Test system: agonistic autoantibodies against the β2 adrenergic receptor (immunoglobulin fraction of POAG patients)
Experiment: Neutralization of agonistic autoantibodies by synthetic peptides, beating rate of spontaneously beating neonatal rat cardiomyocytes
Format: cell-based
Settings: for recognition of epitopes by the antibodies: 5 overlapping peptides of loop II of the β2 adrenergic receptor, FIG. 6; for effect on the antibody-induced increase in the spontaneous beating rate: immunoglobulins of 5 patients with POAG preincubated with short, overlapping peptides of the second extracellular loop of the β2 receptor, neonatal rat cardiomyocytes; for blocking of the stimulating effect of the antibodies by extracellular loop peptides: immunoglobulins from 6 POAG patients preexposed to peptides of the first, second and third extracellular β2 receptor loops, 0.5 μg peptide in 50 μl
Description: Preparation of the immunoglobulin fraction. The immunoglobulin fraction was isolated from 1- to 2-ml serum samples by ammonium sulfate precipitation at a saturation of 40%. The precipitates were washed and dissolved in dialysis buffer (154 mmol/l NaCl, 10 mmol/l sodium phosphate; pH 7.2). The procedure of precipitating, washing, and dissolving was repeated twice.
Finally, the immunoglobulins were taken up in 1 ml PBS (pH 7.2) and dialyzed at 4° C. for 30 hours against 1 l of dialysis buffer. The buffer was changed five times during dialysis. For detection of autoantibodies, the immunoglobulin fractions were added at a dilution of 1:20 or 1:40 to the flasks.
After the dialysis, the IgG fractions feature a concentration of 10-15 mg/ml, a maximum of 10 μg/ml of which are specific receptor antibodies. 50 μl of this IgG solution are pre-incubated with the peptides with the following concentration of peptides: 5 μl of a buffered solution of 100 μg/ml per 50 μl IgG solution. This mixture is pre-incubated at room temperature for 30 minutes and subsequently filled into the cell culture vials, after the former nutrient solution has been removed by pipet. The amount of the medium is 2 ml. The final concentration therefore is of […] for the IgG and 0.5 μg for the peptides. If the molecular weight of the peptide (10 mer) is set with 1 KD and that of the IgG is set with 150 KD, there is an […].
For the neutralization experiments, synthetic peptides corresponding to the sequence of the three extracellular loops of the human β2 adrenegic receptor was added in excess (0.5 μg in 50 μl) to 50 μl of the immunoglobulin fraction. The mixtures were shaken and incubated at room temperature for 1 h. The 100-μl samples were then added to neonatal rat heart muscle cells cultured in 2 ml medium to a final dilution of 1:40. The beating rate was counted for 15 s, 60 min after the addition of the peptide/immunoglobulin mixture.
For identifying the autoantibody neutralizing epitopes synthetic overlapping peptides corresponding to the sequence of the second extracellular loop of the human β2 adrenoceptor was added to the immunoglobulins. After 1 h incubation at room temperature the samples were used as described above.

Row | Substance | recognition of epitopes by the antibodies | effect on the antibody-induced increase in the spontaneous beating rate | blocking of the stimulating effect of the antibodies by extracellular loop peptides | blocking of the stimulating effect of the antibodies by extracellular loop peptides (listed as peptides from the second extracellular loop)
1 | AINCYAN [Ala-Ile-Asn-Cys-Tyr-Ala-Asn] | Antibodies recognize the epitopes | abolished the increase in the spontaneous beating rate in all 5 patients tested |  | 
2 | ANETCCD [Ala-Asn-Glu-Thr-Cys-Cys-Asp] | Antibodies recognize the epitopes | abolished the increase in the spontaneous beating rate in all 5 patients tested |  | 
3 | loop II peptide: synthetic peptide corresponding to the sequence of the second extracellular loop of the human β2 adrenergic receptor (HWYRATHQEAINCYANETCCDFFTNQ) |  |  | blocks the antibody activity to stimulate the rat cardiomyocytes | blocked the effect
